Measured values published in patent publication US20230159510A1, “NOVEL PRMT5 INHIBITORS” (AMGEN INC., priority 2020, published 2023).
pIC50: −log10 of the molar value.

Experiments:
PRMT5/MEP50 = PRMT5/MEP50 (Homo sapiens, UniProt O14744); assay: MTase-Glo methyl transferase assay, Method A (Histone H4 peptide, 1 µM MTA, 24 h pre-incubation); format: biochemical; design: made in house; settings: read-out: PRMT5 MTase Glo Ki (nM, Meth. A)
In short: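 Luminescent SAH detection (MTase-Glo) after a 2 h room-temperature methylation of 1 µM biotinylated H4 (1-21) peptide by 10 nM PRMT5/MEP50 with 5 µM SAM, in 50 mM Tris pH 8.0.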

HCT116 WT cells = assay: HCT116 proliferation assay, WT cells (CellTiter-Glo, 6 days); format: cell-based; settings: Homo sapiens, HCT-116, 144 h, read-out: Prolif_HCT116-WT IC50
In short: (§1)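 Readout is CellTiter-Glo luminescence after 6 days of drug exposure at 37 °C. Compounds tested as 8–9 point, 3-fold dilution series starting at 1 or 10 µM, versus DMSO only, on cells in RPMI 1640 with 10% FBS.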

HCT116 MTAP null cells = assay: HCT116 proliferation assay, MTAP null cells (CellTiter-Glo, 6 days); format: cell-based; settings: HCT116-MTAP null, 144 h, read-out: Protif_ HCT116-MTAP null IC50
In short: as §1

Chain of PRMT5/MEP50 (O14744 whole entry): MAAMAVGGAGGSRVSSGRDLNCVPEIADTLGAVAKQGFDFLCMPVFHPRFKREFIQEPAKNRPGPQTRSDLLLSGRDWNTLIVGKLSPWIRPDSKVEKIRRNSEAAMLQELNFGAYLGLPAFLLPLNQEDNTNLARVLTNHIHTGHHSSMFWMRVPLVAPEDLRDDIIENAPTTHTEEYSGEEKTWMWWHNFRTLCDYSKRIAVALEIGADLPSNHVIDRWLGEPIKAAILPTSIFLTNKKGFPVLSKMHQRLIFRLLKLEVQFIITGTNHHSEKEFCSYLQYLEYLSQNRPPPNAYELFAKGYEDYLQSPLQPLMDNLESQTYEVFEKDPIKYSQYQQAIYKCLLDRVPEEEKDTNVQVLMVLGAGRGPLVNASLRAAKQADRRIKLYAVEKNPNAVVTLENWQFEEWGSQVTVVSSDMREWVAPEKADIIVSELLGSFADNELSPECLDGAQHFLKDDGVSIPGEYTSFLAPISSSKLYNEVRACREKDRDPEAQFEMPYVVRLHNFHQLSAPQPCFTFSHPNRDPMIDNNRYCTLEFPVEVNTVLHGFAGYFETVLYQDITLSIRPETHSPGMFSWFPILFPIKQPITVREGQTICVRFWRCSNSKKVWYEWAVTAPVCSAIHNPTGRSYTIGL
Chain of PRMT5/MEP50 (Q9BQA1 whole entry partner): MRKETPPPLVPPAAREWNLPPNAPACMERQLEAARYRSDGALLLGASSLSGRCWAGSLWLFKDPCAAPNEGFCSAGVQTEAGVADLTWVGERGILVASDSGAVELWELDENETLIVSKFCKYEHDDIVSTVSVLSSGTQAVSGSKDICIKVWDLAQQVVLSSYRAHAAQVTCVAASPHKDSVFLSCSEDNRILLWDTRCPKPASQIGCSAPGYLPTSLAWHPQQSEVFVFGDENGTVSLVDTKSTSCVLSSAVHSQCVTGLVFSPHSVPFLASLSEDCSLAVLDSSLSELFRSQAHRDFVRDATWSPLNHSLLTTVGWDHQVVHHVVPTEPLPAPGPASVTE

Ki (PRMT5/MEP50) [nM] | pIC50 (HCT116 WT cells) | pIC50 (HCT116 MTAP null cells) | SMILES
0.07 | 5.29 | 6.56 | Cc1cc2cc(C(=O)N(Cc3ncc(C#N)cc3C)[C@H](C)c3ncccn3)ccc2nc1N [Example 549, 2-amino-N-((5-cyano-3-methyl-2-pyridinyl)methyl)-3-methyl-N-((1R)-1-(2-pyrimidinyl)ethyl)-6-quinolinecarboxamide]
0.14 | 5.23 | 6.70 | Cc1cc2cc(C(=O)N(Cc3ccc(C(N)=O)cn3)[C@H](C)c3ccccc3F)ccc2nc1N [Example 550, 2-amino-N-((5-carbamoyl-2-pyridinyl)methyl)-N-((1R)-1-(2-fluorophenyl)ethyl)-3-methyl-6-quinolinecarboxamide]
0.14 | 6.20 | 7.68 | COC(=O)N1CC=C(c2ccc(CN(C(=O)c3ccc4nc(N)c(C)cc4c3)[C@H](C)c3ncccn3)nc2)CC1 [Example 551, methyl 6-((((2-amino-3-methyl-6-quinolinyl)carbonyl)((1R)-1-(2-pyrimidinyl)ethyl)amino)methyl)-3’,6′-dihydro[3,4′-bipyridine]-1′(2′H)-carboxylate]
0.32 | 5.59 | 6.66 | CC(=O)N1CCC(c2ccc(CN(C(=O)c3ccc4nc(N)c(C)cc4c3)[C@H](C)c3ncccn3)nc2)CC1 [Example 552, N-((5-(1-acetyl-4-piperidinyl)-2-pyridinyl)methyl)-2-amino-3-methyl-N-((1R)-1-(2-pyrimidinyl)ethyl)-6-quinolinecarboxamide]
0.36 | < 5.00 | 6.34 | Cc1cc2cc(C(=O)N(Cc3cnc(C#N)cn3)[C@H](C)c3ncccn3)ccc2nc1N [Example 553, 2-amino-N-((5-cyano-2-pyrazinyl)methyl)-3-methyl-N-((1R)-1-(2-pyrimidinyl)ethyl)-6-quinolinecarboxamide]
0.07 | 5.37 | 6.91 | Cc1cc2cc(C(=O)N(Cc3ccc(N(C)C)nn3)[C@H](C)c3ncccn3)ccc2nc1N [Example 554, (R)-2-amino-N-((6-(dimethylamino)pyridazin-3-yl)methyl)-3-methyl-N-(1-(pyrimidin-2-yl)ethyl)quinoline-6-carboxamide]
0.07 | 5.42 | 6.90 | Cc1cc2cc(C(=O)N(Cc3ccc(N4CCOCC4)nn3)[C@H](C)c3ncccn3)ccc2nc1N [Example 555, (R)-2-amino-3-methyl-N-((6-morpholinopyridazin-3-yl)methyl)-N-(1-(pyrimidin-2-yl)ethyl)quinoline-6-carboxamide]
4.1 | 5.00 | 6.47 | Cc1cc2cc(C(=O)N(Cc3ccc(N4CC5(COC5)C4)cn3)[C@H](C)c3ncccn3)ccc2nc1N [Example 556, (R)-N-((5-(2-oxa-6-azaspiro[3.3]heptan-6-yl)pyridin-2-yl)methyl)-2-amino-3-methyl-N-(1-(pyrimidin-2-yl)ethyl)quinoline-6-carboxamide]
0.18 | 5.76 | 7.38 | Cc1cc2cc(C(=O)N(Cc3ccc(C4=CCOCC4)cn3)[C@H](C)c3ncccn3)ccc2nc1N [Example 557, (R)-2-amino-N-((5-(3,6-dihydro-2H-pyran-4-yl)pyridin-2-yl)methyl)-3-methyl-N-(1-(pyrimidin-2-yl)ethyl)quinoline-6-carboxamide]
0.08 | 5.89 | 7.42 | Cc1cc2cc(C(=O)N(Cc3ccc(C4=CCCOC4)cn3)[C@H](C)c3ncccn3)ccc2nc1N [Example 558, 2-amino-N-((5-(5,6-dihydro-2H-pyran-3-yl)-2-pyridinyl)methyl)-3-methyl-N-((1R)-1-(2-pyrimidinyl)ethyl)-6-quinolinecarboxamide]
0.07 | 5.66 | 6.83 | Cc1cc2cc(C(=O)N(Cc3ccc(C4CCOCC4)cn3)[C@H](C)c3ncccn3)ccc2nc1N [Example 559, 2-amino-3-methyl-N-((1R)-1-(2-pyrimidinyl)ethyl)-N-((5-(tetrahydro-2H-pyran-4-yl)-2-pyridinyl)methyl)-6-quinolinecarboxamide]

Second part, the compound before the results:

SMILES | Ki (PRMT5/MEP50) [nM] | pIC50 (HCT116 WT cells) | pIC50 (HCT116 MTAP null cells)
Cc1cc2cc(C(=O)N(Cc3cc(C#N)ccn3)[C@H](C)c3ncccn3)ccc2nc1N [Example 513, 2-amino-N-((4-cyano-2-pyridinyl)methyl)-3-methyl-N-((1R)-1-(2-pyrimidinyl)ethyl)-6-quinolinecarboxamide] | 2.61 | < 5.00 | 6.26
Cc1cc2cc(C(=O)N(Cc3ccc(Br)nn3)[C@H](C)c3nccs3)ccc2nc1N [Example 514, 2-amino-N-((6-bromo-3-pyridazinyl)methyl)-3-methyl-N-((1R)-1-(1,3-thiazol-2-yl)ethyl)-6-quinolinecarboxamide] | 0.002 | 6.20 | 7.55
Cc1cc2cc(C(=O)N(Cc3ccc(C(F)(F)F)nn3)[C@@H]3CCOc4ccc(F)nc43)ccc2nc1N [Example 515, (R)-2-amino-N-(6-fluoro-3,4-dihydro-2H-pyrano[3,2-b]pyridin-4-yl)-3-methyl-N-((6-(trifluoromethyl)pyridazin-3-yl)methyl)quinoline-6-carboxamide] | 0.02 | 6.32 | 7.64
Cc1cc2cc(C(=O)N(Cc3ccc(C(F)(F)F)cn3)Cc3ncccc3F)cnc2nc1N [Example 537, 7-amino-N-((3-fluoropyridin-2-yl)methyl)-6-methyl-N-((5-(trifluoromethyl)pyridin-2-yl)methyl)-1,8-naphthyridine-3-carboxamide] | 0.51 | 5.22 | 6.15
Cc1cc2cc(C(=O)N(Cc3ccc(C(F)(F)F)cn3)[C@H](C)c3cnccn3)cnc2nc1N [Example 538, 7-amino-6-methyl-N-((1R)-1-(2-pyrazinyl)ethyl)-N-((5-(trifluoromethyl)-2-pyridinyl)methyl)-1,8-naphthyridine-3-carboxamide] | 0.68 | < 5.00 | 6.14
Cc1cc2nc(N)c(C)cc2cc1C(=O)N(Cc1ccc(C(F)(F)F)cn1)CC(C)C [Example 539, 2-amino-N-isobutyl-3,7-dimethyl-N-((5-(trifluoromethyl)pyridin-2-yl)methyl)quinoline-6-carboxamide] | 0.12 | 5.15 | 6.48
Cc1cc2cc(C(=O)N(Cc3ccc(S(=O)(=O)C4CC4)cn3)[C@H](C)c3ncccc3F)ccc2nc1N [Example 540, (R)-2-amino-N-((5-(cyclopropylsulfonyl)pyridin-2-yl)methyl)-N-(1-(3-fluoropyridin-2-yl)ethyl)-3-methylquinoline-6-carboxamide] | 0.17 | 5.20 | 6.71
Cc1cc2cc(C(=O)N(Cc3ccc(S(C)(=O)=O)cn3)[C@H](C)c3ncccc3F)ccc2nc1N [Example 541, (R)-2-amino-N-((5-(methylsulfonyl)pyridin-2-yl)methyl)-N-(1-(3-fluoropyridin-2-yl)ethyl)-3-methylquinoline-6-carboxamide] | 0.13 | 5.38 | 6.70
Cc1cc2cc(C(=O)N(Cc3ccc(C#N)cn3)[C@H](C)c3ncccc3F)ccc2nc1N [Example 542, (R)-2-amino-N-((5-cyanopyridin-2-yl)methyl)-N-(1-(3-fluoropyridin-2-yl)ethyl)-3-methylquinoline-6-carboxamide] | 0.12 | 5.38 | 6.96
C#Cc1cc2cc(C(=O)N(Cc3ccc(C(F)(F)F)cn3)[C@H](C)c3ncccc3F)cnc2nc1N [Example 543, (R)-7-amino-6-ethynyl-N-(1-(3-fluoropyridin-2-yl)ethyl)-N-((5-(trifluoromethyl)pyridin-2-yl)methyl)-1,8-naphthyridine-3-carboxamide] | 0.59 | < 5.00 | 6.25
Cc1c(N)nc2ccc(C(=O)N(Cc3ccc(C#N)cn3)[C@H](C)c3ncccn3)cc2c1C [Example 545, 2-amino-N-((5-cyano-2-pyridinyl)methyl)-3,4-dimethyl-N-((1R)-1-(2-pyrimidinyl)ethyl)-6-quinolinecarboxamide] | 0.41 | 6.32 | 7.49
Cc1cc2cc(C(=O)N(Cc3ccc(C4CC4)cn3)CC(C)C)ccc2nc1N [Example 546, 2-amino-N-((5-cyclopropyl-2-pyridinyl)methyl)-3-methyl-N-(2-methylpropyl)-6-quinolinecarboxamide] | 1.09 | 5.36 | 6.58
Cc1cc2cc(C(=O)N(Cc3ccc(C4=CCN(C(=O)OC(C)(C)C)CC4)cn3)[C@H](C)c3ncccn3)ccc2nc1N [Example 547, tert-butyl (R)-6-((2-amino-3-methyl-N-(1-(pyrimidin-2-yl)ethyl)quinoline-6-carboxamido)methyl)-3’,6′-dihydro-[3,4′-bipyridine]-1′(2’H)-carboxylate] | 0.02 | 6.35 | 7.72
CC(=O)N1CC=C(c2ccc(CN(C(=O)c3ccc4nc(N)c(C)cc4c3)[C@H](C)c3ncccn3)nc2)CC1 [Example 548, N-((1′-acetyl-1’,2’,3’,6′-tetrahydro[3,4′-bipyridin]-6-yl)methyl)-2-amino-3-methyl-N-((1R)-1-(2-pyrimidinyl)ethyl)-6-quinolinecarboxamide] | 0.1 | 5.68 | 7.06
